The conditions of the data set: Liquid; for mass density: 101.33 kPa.

± gives the expanded uncertainty stated by the source.

Usually mass density stands for mass per unit of volume. A word on the vapor or sublimation pressure: it is the pressure of vapour in equilibrium with the condensed phase. Consider `C1COCO1` [1,3-dioxolane], for which the mass density (298.15 K) was found to be 1058.62 ± 0.85 kg/m3, the mass density (313.15 K) is recorded as 1039.88 ± 0.76 kg/m3 and the mass density (328.15 K) is given as 1020.86 ± 0.67 kg/m3. In addition, the “vapor or sublimation pressure” value is, setting by setting: (298.15 K) 13.54 ± 0.18 kPa; (313.15 K) 26.83 ± 0.29 kPa; (328.15 K) 49.01 ± 0.47 kPa.

In the case of `C1COCCO1` [1,4-dioxane], the mass density was 1027.87 ± 0.71 kg/m3 (298.15 K), 1010.69 ± 0.63 kg/m3 (313.15 K) and 993.75 ± 0.6 kg/m3 (328.15 K). The “vapor or sublimation pressure” value by setting is: (298.15 K) 4.9 ± 0.12 kPa; (313.15 K) 10.17 ± 0.16 kPa; (328.15 K) 19.54 ± 0.23 kPa.

With `CCCCCCl` [1-chloropentane], the mass density turned out to be 877 ± 1 kg/m3 (298.15 K), 861.52 ± 1.1 kg/m3 (313.15 K) and 846.33 ± 1.1 kg/m3 (328.15 K). The “vapor or sublimation pressure” value turned out to be 4.055 ± 0.11 kPa (298.15 K), 8.45 ± 0.14 kPa (313.15 K) and 16.4 ± 0.21 kPa (328.15 K).

Regarding `C1CCOC1` [tetrahydrofuran], the mass density is, setting by setting: (298.15 K) 881.95 ± 0.45 kg/m3; (313.15 K) 865.36 ± 0.49 kg/m3; (328.15 K) 848.68 ± 0.52 kg/m3. In addition, the “vapor or sublimation pressure” value was 21.61 ± 0.25 kPa (298.15 K), 40.62 ± 0.4 kPa (313.15 K) and 70.61 ± 0.63 kPa (328.15 K).

Turning to `C1CCOCC1` [tetrahydropyran], the mass density (298.15 K) stood at 878.81 ± 1 kg/m3, the mass density (313.15 K) came to 863.67 ± 1.1 kg/m3 and the mass density (328.15 K) was found to be 848.29 ± 1.1 kg/m3. In addition, the “vapor or sublimation pressure” value turned out to be 9.56 ± 0.15 kPa (298.15 K), 18.66 ± 0.23 kPa (313.15 K) and 33.95 ± 0.35 kPa (328.15 K).

For the origin of these results see the NIST ThermoML archive (doi:10.1016/j.fluid.2006.10.024).
